Experimental findings from publication PMC3551932, “STK295900, a Dual Inhibitor of Topoisomerase 1 and 2, Induces G2 Arrest in the Absence of DNA Damage” (PLoS ONE, 2013) are described below.

One test concerns HepG2 cells. In words: Cell growth inhibition assay, HepG2. The class given is cell-based, human. The following applies: Table 2 comparison, HepG2, growth up to 4 days. The text has this:
(§1) Human epitheloid cervical carcinoma HeLa cells, human breast adenocarcinoma MCF7 and MDA-MB-231cells, human hepatocellular carcinoma HepG2 cells, human colon adenocarcinoma HT-29 cells, and human colorectal carcinoma HCT-116 cells were purchased from ATCC® and maintained in DMEM medium. Human prostate carcinoma PC-3 cells (purchased from ATCC®), human gastric carcinoma SNU-484 and SNU-601(obtained from Korean Cell Line Bank (KCLB)), human leukemia K-562 and HL-60 cells (purchased from ATCC®), immortalized human prostate epithelial 267B1cells, and immortalized human embryonic lung fibroblast MRC5CV1 cells were maintained in RPMI 1640 medium whereas immortalized retinal pigment epithelial hTERT RPE-1 cells (purchased from ATCC®) were maintained in DMEM/F12 medium. All cell lines were cultured in media supplemented with 10% fetal bovine serum, 100 U/ml penicillin, and […] streptomycin at 37°C in a 5% CO2 incubator.
(§2) Cells were seeded at the appropriate amount (1–2×10^3 cells) in triplicate in 96-well plates for 24 h and then treated with various concentrations of STK295900. Cell growth was determined by using EZ-CyTox cell viability assay kit (Daeil Lab. Service, Seoul, Korea). Ten microliters of WST solution were added to the treated cells at 24, 48, 72, and 96 h. Cells were further incubated at 37°C for 2 h and the absorbance was measured at 450 nm.

The test system of test [1] is HeLa cells. In words: Antagonistic effect on Top poison-induced DNA damage (γ-H2A.X immunoblot). It counts as cell-based, human. The following applies: DMSO pretreated, 10 µM or 30 µM, 1 h. The method, then: (§3) Cells were lysed with cold RIPA buffer (50 mM Tris-HCl pH 8.0, 150 mM NaCl, 1% NP-40, 0.5% sodium deoxycholate, 0.1% SDS) containing freshly added protease inhibitor, phosphatase inhibitor (SIGMA), 1 mM DTT, and 1 mM Na3VO4 on ice for 1 h. Whole cell lysates were centrifuged at 15,000 rpm for 20 min and then the supernatant was transferred into a new tube. An appropriate amount of cell lysate was subjected to SDS-PAGE. Then the resolved proteins were transferred onto a PVDF membrane (Bio-Rad) for immunoblot analyses with specific antibodies. The proteins were detected using chemiluminescence solution (Thermo Scientific, Rockford, IL).
(§4) Supercoiled DNA relaxation assay for (A) topoisomerase 1 (Top 1) and (B) topoisomerase 2 (Top 2). Supercoiled pBR322 plasmid DNA was incubated at 37°C for 30 min with Top 1 enzyme (A) or Top 2α (B) in the presence of various concentrations of indicated compounds. DNA samples were separated by electrophoresis on a 1% agarose gel, stained with ethidium bromide, and visualized by UV light. (−), supercoiled DNA alone; oc, open circular; sc, supercoiled. […] HeLa cells were pretreated with 10 µM of STK295900 for 30 min and then incubated with the indicated concentrations of camptothecin for 1 h. Treated cells were lysed and subjected to immunoblot analyses with antibody against γ-H2A.X. β-actin was used as a loading control. […] HeLa cells were pretreated with STK295900 at 10, 20, 30, or 50 µM or ICRF-193 at 10 µM for 30 min. […] Treated cells were then lysed and subjected to immunoblot analyses with antibody against γ-H2A.X. β-actin was used as a loading control.
The lysates were subjected to immunoblot analyses with γ-H2A.X antibody.
For orientation: In western blotting, separated proteins are transferred to a membrane and probed.

Test [2] concerns HeLa cells. Kind of test: Cell growth inhibition assay, HeLa. It counts as cell-based, human. The following applies: Table 2 comparison, growth up to 4 days.
From the text: as §1, §2

Test [3] has as its target T1, calf thymus topoisomerase 1 (Bos taurus, UniProt F1MN93).
T1 construct: purified calf thymus topoisomerase 1; purchased Takara Bio, Shiga, Japan; host or cells: calf thymus (tissue-purified)
T1 sequence (F1MN93 1-767): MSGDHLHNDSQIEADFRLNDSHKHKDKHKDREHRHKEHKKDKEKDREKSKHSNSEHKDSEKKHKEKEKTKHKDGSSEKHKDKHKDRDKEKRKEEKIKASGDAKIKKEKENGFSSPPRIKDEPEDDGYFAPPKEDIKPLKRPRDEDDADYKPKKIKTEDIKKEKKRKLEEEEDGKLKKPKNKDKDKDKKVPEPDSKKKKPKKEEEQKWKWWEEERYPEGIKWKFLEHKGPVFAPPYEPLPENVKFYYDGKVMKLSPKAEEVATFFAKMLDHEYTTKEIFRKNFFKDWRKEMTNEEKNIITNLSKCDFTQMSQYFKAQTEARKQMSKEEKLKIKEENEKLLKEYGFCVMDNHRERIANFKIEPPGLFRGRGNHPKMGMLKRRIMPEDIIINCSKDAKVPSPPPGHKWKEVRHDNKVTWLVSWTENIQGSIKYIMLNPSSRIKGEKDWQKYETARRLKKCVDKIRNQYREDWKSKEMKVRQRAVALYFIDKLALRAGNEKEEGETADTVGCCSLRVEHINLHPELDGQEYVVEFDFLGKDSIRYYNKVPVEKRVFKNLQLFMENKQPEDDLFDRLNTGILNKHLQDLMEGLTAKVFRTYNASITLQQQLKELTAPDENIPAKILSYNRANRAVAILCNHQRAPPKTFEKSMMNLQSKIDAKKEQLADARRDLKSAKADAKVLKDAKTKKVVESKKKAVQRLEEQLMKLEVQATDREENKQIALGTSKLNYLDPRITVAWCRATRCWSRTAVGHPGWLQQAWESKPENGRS
In words: Supercoiled DNA relaxation assay for topoisomerase 1. It counts as biochemical.

For test [4], the system named is HeLa cells. Kind of test: Immunoblot of cell cycle and DNA damage checkpoint proteins. It counts as cell-based, human. The following applies: 24 h, STK295900 1 or 5 µM, camptothecin 10 µM, etoposide 10 µM. The method, then: as §3
(A) Flow cytometric analysis for cell cycle distribution. HeLa cells were treated with the indicated concentrations of STK295900 for 24 h. Treated cells were then stained with propidium iodide (PI) and processed for cell cycle analysis. The bar graph represents the mean percentage of each cell cycle phase ± SD from three independent experiments. * = p<0.05 versus the respective G1, S, or G2/M phase of DMSO-treated cells. (B) Mitotic index of STK295900. HeLa cells were treated with the indicated concentrations of STK295900 for 24 h. Cells were then stained with Hoechst 33342 and mitotic cells were counted. […] (C) Cell cycle related proteins expression. […] Treated cells were lysed and subjected to immunoblot analyses with antibodies against cyclin A, cyclin B1, phospho-Histone H3 (S10), and Histone H3. β-actin was used as a loading control.
(A) G2/M transition regulated proteins expression. […] GAPDH was used as a loading control. (B) DNA damage-checkpoint related proteins. […] Images were analyzed on a fluorescence microscope.

Test [5] relates to cancer (HeLa, MCF7, HepG2, and HT-29) and non-cancerous cell lines (hTERT RPE-1, 267B1, and MRC5CV1). Kind of test: Cell growth inhibition assay, cancer and non-cancerous cell lines compared. The class given is cell-based, human.
From the text: as §1, §2

The test system of another test is MRC5CV1 cells. In words: Cell growth inhibition assay, MRC5CV1. It counts as cell-based, human. The conditions noted are these: Table 2 comparison, MRC5CV1, non-cancer, growth up to 4 days.
From the text: as §1, §2

A further test deals with hTERT RPE-1 cells. In words: Cell growth inhibition assay, hTERT RPE-1. The class given is cell-based, human. The conditions noted are these: Table 2 comparison, hTERT RPE-1, non-cancer, growth up to 4 days.
From the text: as §1, §2

A further test relates to 267B1 cells. Kind of test: Cell growth inhibition assay, 267B1. It counts as cell-based, human. The following applies: Table 2 comparison, 267B1, non-cancer, growth up to 4 days.
From the text: as §1, §2

A further test has as its system MCF7 cells. Kind of test: Cell growth inhibition assay, MCF7. It counts as cell-based, human. The following applies: Table 2 comparison, MCF7, growth up to 4 days.
From the text: as §1, §2

A further test deals with HT-29 cells. In words: Cell growth inhibition assay, HT-29. The class given is cell-based, human. The conditions noted are these: Table 2 comparison, HT-29, growth up to 4 days.
From the text: as §1, §2

A further test has as its target human topoisomerase 2α (Homo sapiens, UniProt P11388). In words: Supercoiled DNA relaxation assay for topoisomerase 2α. The following applies: pBR322, 37°C, 30 min. The class given is biochemical. As to the method:
After incubation, the reaction was terminated by addition of 2 µl of 10% SDS. The reaction mixtures were treated with 50 µg/ml proteinase K for 30 min at 37°C and then DNA was extracted with CIA (chloroform:isoamyl alcohol, 24∶1). Samples were resolved by electrophoresis on a 1% agarose gel. After staining the electrophoresed gel with ethidium bromide, DNA bands were visualized by UV light and photographed on Gel Doc XR.
as §4

A value given as a limit tells only on which side of the number the result lay.

Chain of human topoisomerase 2α (P11388 whole entry): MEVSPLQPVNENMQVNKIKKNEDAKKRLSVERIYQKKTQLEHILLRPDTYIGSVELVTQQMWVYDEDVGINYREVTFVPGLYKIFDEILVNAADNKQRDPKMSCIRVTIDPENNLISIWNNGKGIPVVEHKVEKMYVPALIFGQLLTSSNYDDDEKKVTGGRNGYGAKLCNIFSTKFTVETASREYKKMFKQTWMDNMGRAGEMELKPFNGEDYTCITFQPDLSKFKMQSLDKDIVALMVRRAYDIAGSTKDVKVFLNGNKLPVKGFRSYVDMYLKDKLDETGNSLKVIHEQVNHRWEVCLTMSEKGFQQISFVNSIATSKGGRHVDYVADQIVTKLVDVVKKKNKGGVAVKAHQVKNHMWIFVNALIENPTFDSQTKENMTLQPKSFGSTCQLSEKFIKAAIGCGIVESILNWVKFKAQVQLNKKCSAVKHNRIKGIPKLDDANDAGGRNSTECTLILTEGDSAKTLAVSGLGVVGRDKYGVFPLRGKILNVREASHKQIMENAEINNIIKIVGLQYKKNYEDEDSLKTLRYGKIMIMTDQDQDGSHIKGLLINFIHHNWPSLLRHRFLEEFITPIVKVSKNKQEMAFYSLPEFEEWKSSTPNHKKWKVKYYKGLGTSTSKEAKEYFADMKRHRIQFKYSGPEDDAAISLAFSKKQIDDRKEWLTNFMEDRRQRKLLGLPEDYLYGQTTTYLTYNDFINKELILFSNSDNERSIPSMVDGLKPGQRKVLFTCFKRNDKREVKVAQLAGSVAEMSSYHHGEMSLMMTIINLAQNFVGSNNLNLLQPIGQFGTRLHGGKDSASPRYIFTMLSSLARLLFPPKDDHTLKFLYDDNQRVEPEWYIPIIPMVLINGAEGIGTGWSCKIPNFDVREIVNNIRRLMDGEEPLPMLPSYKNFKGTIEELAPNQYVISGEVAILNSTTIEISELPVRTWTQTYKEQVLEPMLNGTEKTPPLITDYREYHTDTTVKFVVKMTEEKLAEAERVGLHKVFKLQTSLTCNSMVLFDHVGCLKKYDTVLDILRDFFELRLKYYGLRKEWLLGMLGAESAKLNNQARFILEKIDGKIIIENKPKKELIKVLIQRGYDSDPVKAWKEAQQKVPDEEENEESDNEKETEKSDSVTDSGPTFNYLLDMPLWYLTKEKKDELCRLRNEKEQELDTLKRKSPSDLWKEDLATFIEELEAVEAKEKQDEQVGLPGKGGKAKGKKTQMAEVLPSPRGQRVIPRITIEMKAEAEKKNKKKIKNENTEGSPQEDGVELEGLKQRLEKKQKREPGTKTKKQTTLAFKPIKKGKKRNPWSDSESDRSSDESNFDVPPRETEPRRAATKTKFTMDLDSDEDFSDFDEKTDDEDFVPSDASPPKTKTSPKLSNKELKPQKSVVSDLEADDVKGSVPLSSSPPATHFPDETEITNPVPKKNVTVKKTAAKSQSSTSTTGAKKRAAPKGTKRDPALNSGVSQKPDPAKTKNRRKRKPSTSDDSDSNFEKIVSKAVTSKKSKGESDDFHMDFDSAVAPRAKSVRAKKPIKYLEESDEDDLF

What is called IC50 is the concentration that gives 50% inhibition. Low readings indicate greater potency in that assay, high ones weaker potency in that assay. Consider `CC[C@@]1(O)C(=O)OCc2c1cc1n(c2=O)Cc2cc3ccccc3nc2-1` [Camptothecin], for which the IC50 in the test on HepG2 cells (Homo sapiens, HepG2, 96 h) is 20 nM; in the test on HeLa cells [2] (Homo sapiens, 96 h), 20 nM; in test [5] (Homo sapiens, all cell lines tested (HeLa, MCF7, HepG2, HT-29, hTERT RPE-1, 267B1, MRC5CV1)), below 30 nM; with MRC5CV1 cells (Homo sapiens, 96 h), 20 nM; in the test on hTERT RPE-1 cells (Homo sapiens, hTERT-RPE1, 96 h) it was below 10 nM; in the test with 267B1 cells (Homo sapiens, 96 h) it was below 10 nM. In addition, the IC50 with MCF7 cells (Homo sapiens, MCF7, 96 h) turned out to be 30 nM; in the test on HT-29 cells (Homo sapiens, HT-29, 96 h) it was 30 nM. In the test with HeLa cells [1], the “γ-H2A.X induction in control cells (immunoblot)” value is on record as “strongly induced γ-H2A.X”. Besides, the “Top 1-mediated DNA relaxation” value in [3] is given as “inhibited DNA relaxation activity of Top 1 in a dose-dependent manner”. The “p53 and p21 levels” value with HeLa cells [4] is reported as “significantly increased”. In the test with HeLa cells [4], the “phosphorylation-dependent activation of ATM (S1981), ATR (S428), Chk1 (S345), and Chk2 (T68)” value was “activation of ATM, Chk1, and Chk2”. Also, in the test with HeLa cells [4] (nocodazole 200 ng/ml), the “Phosphorylation of Cdk1 at T161” value is “strongly enhanced”. Also, the “Wee1 and Cdc25C levels” value with HeLa cells [4] (nocodazole 200 ng/ml) is “reduction of Cdc25C”. The “cyclin A and cyclin B1 levels” value in the test on HeLa cells [4] (nocodazole 200 ng/ml) was “accumulations of cyclin A and cyclin B1”. In the test with HeLa cells [4] (nocodazole 200 ng/ml), the “inhibitory phosphorylation of Cdk1 (T14 and Y15)” value is given as “abundance”.
For `COc1cc([C@@H]2c3cc4c(cc3[C@@H](O[C@@H]3O[C@@H]5CO[C@@H](C)O[C@H]5[C@H](O)[C@H]3O)[C@H]3COC(=O)[C@H]23)OCO4)cc(OC)c1O` [Etoposide], the IC50 is 840 nM in the test with HepG2 cells (Homo sapiens, HepG2, 96 h); 300 nM with HeLa cells [2] (Homo sapiens, 96 h); 1290 nM with MRC5CV1 cells (Homo sapiens, 96 h); 450 nM with hTERT RPE-1 cells (Homo sapiens, hTERT-RPE1, 96 h); 390 nM in the test with 267B1 cells (Homo sapiens, 96 h); 13200 nM in the test on MCF7 cells (Homo sapiens, MCF7, 96 h). Besides, the IC50 with HT-29 cells (Homo sapiens, HT-29, 96 h) amounted to 10300 nM. On human topoisomerase 2α, the “Top 2α-mediated DNA relaxation” value was “inhibited Top 2α activity by reducing the relaxed DNA and increasing nicked-open-circular DNA”.
Turning to `CCOc1ccc(-c2nc3ccc(-c4nc5ccc(N6CCN(C)CC6)cc5[nH]4)cc3[nH]2)cc1` [Hoechst 33342], the IC50 came to 220 nM with HepG2 cells; 4560 nM with HeLa cells [2]; 350 nM in the test with MRC5CV1 cells; 1010 nM with hTERT RPE-1 cells; 840 nM with 267B1 cells; 200 nM in the test on MCF7 cells. The IC50 in the test with HT-29 cells was 650 nM. Further, the “selectivity of toxicity, cancer versus non-cancer cells” value in test [5] (cancer (HeLa, MCF7, HepG2, HT-29) vs non-cancer (hTERT RPE-1, 267B1, MRC5CV1)) was “diverse and non-selective against cancer cells”.
Regarding `COC(=O)Nc1nc2ccc(C(=O)c3cccs3)cc2[nH]1` [nocodazole], in the test on HeLa cells [4] (nocodazole 200 ng/ml), the “Histone H3 phosphorylation at S10” value is “detected only in cells treated with nocodazole”; the “Phosphorylation of Cdk1 at T161” value is listed as “strongly enhanced”; the “Wee1 and Cdc25C levels” value was “undetectable levels of Wee1 but activation of Cdc25C”; the “cyclin A and cyclin B1 levels” value was “high level of cyclin B1 and undetectable level of cyclin A”. Also, the “inhibitory phosphorylation of Cdk1 (T14 and Y15)” value in the test on HeLa cells [4] (nocodazole 200 ng/ml) was “could not be detected”.
ICRF-193: at human topoisomerase 2α, the “Top 2α-mediated DNA relaxation” value is “accumulation of supercoiled DNA”.
